Laboratory results published in ChEMBL document CHEMBL3588817, “Discovery of 4,5,6,7-Tetrahydrobenzo[1,2-d]thiazoles as Novel DNA Gyrase Inhibitors Targeting the ATP-Binding Site” (J Med Chem, 2015).
In brackets after ≈: the same amount, converted by molar mass.

Assays:
[1] = tested on: Escherichia coli; assay: Antibacterial activity against wild type Escherichia coli ATCC 25922 assessed as inhibition of microbial growth at 50 uM by broth microdilution method; type: functional; conditions: read-out: GI
[2] = tested on: Escherichia coli; assay: Antibacterial activity against efflux deficient Escherichia coli tolC::Tn10 lacking functional tolC gene by broth microdilution method
[3] = tested on: Escherichia coli; assay: Antibacterial activity against wild type Escherichia coli ATCC 25922 assessed as inhibition of microbial growth by broth microdilution method; type: functional
[4] = tested on: Staphylococcus aureus; assay: Antibacterial activity against Staphylococcus aureus 25923 assessed as inhibition of microbial growth at 50 uM by broth microdilution method; type: functional; conditions: read-out: GI
[5] = tested on: Pseudomonas aeruginosa; assay: Antibacterial activity against Pseudomonas aeruginosa ATCC 27853 assessed as inhibition of microbial growth at 50 uM by broth microdilution method; type: functional; conditions: read-out: GI
[6] = biological target: DNA gyrase (Staphylococcus aureus, UniProt P0A0K8+P20831); assay: Inhibition of Staphylococcus aureus DNA gyrase using relaxed pNO1 plasmid and biotinylated oligonucelotide incubated for 30 mins by fluorescence based DNA super-coiling assay; type: protein-complex assay
[7] = biological target: T1, DNA gyrase (Escherichia coli, UniProt P0AES4+P0AES6); assay: Inhibition of Escherichia coli DNA gyrase using relaxed pNO1 plasmid and biotinylated oligonucelotide incubated for 30 mins by fluorescence based DNA super-coiling assay; type: protein-complex assay
[8] = tested on: Escherichia coli; assay: Antibacterial activity against Escherichia coli imp4213::Tn10 by broth microdilution method; type: functional
[9] = biological target: Topoisomerase IV (Staphylococcus aureus, UniProt P0C1S7+P0C1U9); assay: Inhibition of Staphylococcus aureus DNA topoisomerase 4 using relaxed pNO1 plasmid and biotinylated oligonucelotide incubated for 30 mins by fluorescence based DNA relaxation assay; type: protein-complex assay
[10] = tested on: Enterococcus faecalis; assay: Antibacterial activity against Enterococcus faecalis ATCC 29212 assessed as inhibition of microbial growth at 50 uM by broth microdilution method; type: functional; conditions: read-out: GI
[11] = tested on: Enterococcus faecalis; assay: Antibacterial activity against Enterococcus faecalis ATCC 29212 assessed as inhibition of microbial growth by broth microdilution method; type: functional
[12] = biological target: T1, DNA gyrase; assay: Binding affinity to Escherichia coli DNA gyrase subunit B N-terminal 24 kDa domain by SPR assay; type: protein-complex assay
[13] = tested on: Pseudomonas aeruginosa; assay: Antibacterial activity against Pseudomonas aeruginosa ATCC 27853 assessed as inhibition of microbial growth by broth microdilution method; type: functional
[14] = tested on: Escherichia coli; assay: Antibacterial activity against wild type Escherichia coli ATCC 25922 by broth microdilution method; type: functional
[15] = tested on: Escherichia coli; assay: Inhibition of Escherichia coli DNA topoisomerase 4 assessed as residual enzyme activity at 100 uM using relaxed pNO1 plasmid and biotinylated oligonucelotide incubated for 30 mins by fluorescence based DNA relaxation assay
[16] = tested on: Staphylococcus aureus; assay: Antibacterial activity against Staphylococcus aureus 25923 assessed as inhibition of microbial growth by broth microdilution method; type: functional
[17] = biological target: DNA gyrase (Staphylococcus aureus) (UniProt P0A0K8+P20831); assay: Inhibition of Staphylococcus aureus DNA gyrase assessed as residual enzyme activity at 100 uM using relaxed pNO1 plasmid and biotinylated oligonucelotide incubated for 30 mins by fluorescence based DNA super-coiling assay; type: protein-complex assay
[18] = biological target: Topoisomerase IV (Staphylococcus aureus) (UniProt P0C1U9+P0C1S7); assay: Inhibition of Staphylococcus aureus DNA topoisomerase 4 assessed as residual enzyme activity at 100 uM using relaxed pNO1 plasmid and biotinylated oligonucelotide incubated for 30 mins by fluorescence based DNA relaxation assay; type: protein-complex assay
[19] = Inhibition of Escherichia coli DNA Gyrase ATPase activity assessed as reduction in conversion of NADH to NAD+ using linear pBR322 substrate

Sequence of DNA gyrase (Staphylococcus aureus) (P0A0K8 2-644 limits assumed): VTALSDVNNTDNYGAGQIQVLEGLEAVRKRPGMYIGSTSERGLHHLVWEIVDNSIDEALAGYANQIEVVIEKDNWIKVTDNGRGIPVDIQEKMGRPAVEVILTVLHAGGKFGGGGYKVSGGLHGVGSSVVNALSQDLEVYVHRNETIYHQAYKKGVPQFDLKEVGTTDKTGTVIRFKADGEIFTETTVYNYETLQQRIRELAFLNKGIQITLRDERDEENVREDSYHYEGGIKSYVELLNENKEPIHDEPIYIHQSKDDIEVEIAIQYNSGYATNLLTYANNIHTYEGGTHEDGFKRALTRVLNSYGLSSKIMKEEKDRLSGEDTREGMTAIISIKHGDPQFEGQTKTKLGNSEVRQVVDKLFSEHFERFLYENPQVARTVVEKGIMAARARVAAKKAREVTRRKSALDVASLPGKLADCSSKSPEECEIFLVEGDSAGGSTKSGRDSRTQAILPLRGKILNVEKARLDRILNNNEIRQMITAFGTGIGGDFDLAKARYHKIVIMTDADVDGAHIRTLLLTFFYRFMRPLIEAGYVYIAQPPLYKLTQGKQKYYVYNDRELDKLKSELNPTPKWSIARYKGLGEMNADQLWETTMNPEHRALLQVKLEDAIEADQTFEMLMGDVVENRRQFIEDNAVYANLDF
Sequence of DNA gyrase (Staphylococcus aureus) (P20831 whole entry partner): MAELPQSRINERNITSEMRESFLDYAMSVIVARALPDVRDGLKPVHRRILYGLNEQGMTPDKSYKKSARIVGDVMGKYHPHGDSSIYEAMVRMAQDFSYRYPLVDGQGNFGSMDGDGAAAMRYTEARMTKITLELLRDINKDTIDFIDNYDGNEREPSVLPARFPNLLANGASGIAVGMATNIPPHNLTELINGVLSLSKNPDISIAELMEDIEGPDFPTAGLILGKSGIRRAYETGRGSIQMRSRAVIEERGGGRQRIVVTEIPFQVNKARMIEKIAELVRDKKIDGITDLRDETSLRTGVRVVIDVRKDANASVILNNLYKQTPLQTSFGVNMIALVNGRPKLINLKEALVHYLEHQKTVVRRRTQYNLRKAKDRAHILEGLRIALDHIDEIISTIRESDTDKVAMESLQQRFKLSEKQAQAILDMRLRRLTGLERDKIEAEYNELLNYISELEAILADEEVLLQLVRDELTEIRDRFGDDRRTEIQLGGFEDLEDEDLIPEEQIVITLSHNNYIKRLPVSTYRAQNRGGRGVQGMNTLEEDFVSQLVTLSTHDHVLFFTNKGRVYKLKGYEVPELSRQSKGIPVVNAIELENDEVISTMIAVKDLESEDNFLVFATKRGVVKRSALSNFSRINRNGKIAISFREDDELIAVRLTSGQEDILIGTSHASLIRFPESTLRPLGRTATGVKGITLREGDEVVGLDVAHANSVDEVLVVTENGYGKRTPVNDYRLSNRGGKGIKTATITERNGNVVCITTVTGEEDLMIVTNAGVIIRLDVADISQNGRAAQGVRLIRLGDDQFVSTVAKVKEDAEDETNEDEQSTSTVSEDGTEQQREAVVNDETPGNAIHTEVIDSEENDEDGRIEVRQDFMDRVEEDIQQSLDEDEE
Sequence of DNA gyrase (Staphylococcus aureus, UniProt P0A0K8+P20831) (P0A0K8 whole entry): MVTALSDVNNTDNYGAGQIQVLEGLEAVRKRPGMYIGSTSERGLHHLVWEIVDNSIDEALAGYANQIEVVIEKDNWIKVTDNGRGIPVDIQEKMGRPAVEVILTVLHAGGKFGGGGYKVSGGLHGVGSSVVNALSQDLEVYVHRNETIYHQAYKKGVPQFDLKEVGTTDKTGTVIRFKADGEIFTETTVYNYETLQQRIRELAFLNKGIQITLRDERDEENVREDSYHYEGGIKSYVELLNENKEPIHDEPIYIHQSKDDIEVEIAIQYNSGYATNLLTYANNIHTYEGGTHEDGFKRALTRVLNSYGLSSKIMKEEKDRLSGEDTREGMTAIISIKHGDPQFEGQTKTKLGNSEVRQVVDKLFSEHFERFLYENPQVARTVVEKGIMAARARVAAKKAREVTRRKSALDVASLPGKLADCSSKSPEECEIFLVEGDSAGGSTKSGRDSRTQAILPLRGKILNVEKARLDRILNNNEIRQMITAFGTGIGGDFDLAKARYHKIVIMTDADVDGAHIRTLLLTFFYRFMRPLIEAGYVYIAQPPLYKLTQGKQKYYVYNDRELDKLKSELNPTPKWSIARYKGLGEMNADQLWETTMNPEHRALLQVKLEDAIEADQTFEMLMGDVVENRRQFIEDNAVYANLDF
Sequence of DNA gyrase (Staphylococcus aureus, UniProt P0A0K8+P20831) (P20831 whole entry): as the sequence (P20831 whole entry partner) above
Sequence of Topoisomerase IV (P0C1U9 whole entry): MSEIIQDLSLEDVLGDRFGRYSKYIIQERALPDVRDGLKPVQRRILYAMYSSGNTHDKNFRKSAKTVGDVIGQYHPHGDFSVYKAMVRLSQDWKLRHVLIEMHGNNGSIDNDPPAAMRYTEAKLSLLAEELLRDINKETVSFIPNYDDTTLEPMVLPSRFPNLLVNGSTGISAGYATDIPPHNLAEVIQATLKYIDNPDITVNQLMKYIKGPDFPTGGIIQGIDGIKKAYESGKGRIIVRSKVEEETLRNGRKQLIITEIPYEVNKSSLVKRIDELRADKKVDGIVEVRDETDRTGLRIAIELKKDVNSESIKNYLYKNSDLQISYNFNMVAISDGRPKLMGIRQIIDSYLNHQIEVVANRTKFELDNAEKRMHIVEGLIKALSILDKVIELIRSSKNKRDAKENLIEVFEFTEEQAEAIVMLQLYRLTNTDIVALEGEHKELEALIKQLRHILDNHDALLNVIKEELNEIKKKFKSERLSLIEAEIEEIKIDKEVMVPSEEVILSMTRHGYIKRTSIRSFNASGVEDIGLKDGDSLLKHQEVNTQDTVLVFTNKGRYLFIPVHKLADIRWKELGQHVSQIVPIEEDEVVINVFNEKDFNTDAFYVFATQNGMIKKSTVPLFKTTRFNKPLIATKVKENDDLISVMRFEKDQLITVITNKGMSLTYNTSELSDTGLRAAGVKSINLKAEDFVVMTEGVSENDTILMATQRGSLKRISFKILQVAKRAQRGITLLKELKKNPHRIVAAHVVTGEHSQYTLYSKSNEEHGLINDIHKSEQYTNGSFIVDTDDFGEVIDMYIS
Sequence of Topoisomerase IV (P0C1S7 whole entry): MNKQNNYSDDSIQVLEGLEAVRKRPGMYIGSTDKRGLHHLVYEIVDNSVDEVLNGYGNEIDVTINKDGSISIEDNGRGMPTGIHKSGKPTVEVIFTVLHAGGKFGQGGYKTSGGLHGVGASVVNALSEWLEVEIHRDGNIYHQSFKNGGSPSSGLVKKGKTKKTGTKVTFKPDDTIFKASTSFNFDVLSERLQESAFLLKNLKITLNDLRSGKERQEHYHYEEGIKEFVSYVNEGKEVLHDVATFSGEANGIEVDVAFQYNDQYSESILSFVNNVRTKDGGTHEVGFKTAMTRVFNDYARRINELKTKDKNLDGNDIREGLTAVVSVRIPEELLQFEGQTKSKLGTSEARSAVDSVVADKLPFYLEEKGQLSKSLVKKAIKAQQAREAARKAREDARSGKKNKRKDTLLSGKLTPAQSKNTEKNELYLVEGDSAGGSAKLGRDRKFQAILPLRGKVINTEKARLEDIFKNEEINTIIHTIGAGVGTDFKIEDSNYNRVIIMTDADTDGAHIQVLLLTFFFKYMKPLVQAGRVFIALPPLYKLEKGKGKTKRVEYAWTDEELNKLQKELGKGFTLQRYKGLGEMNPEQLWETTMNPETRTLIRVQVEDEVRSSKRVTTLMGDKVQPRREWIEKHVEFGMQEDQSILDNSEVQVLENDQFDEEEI

Row | SMILES | inhibition of growth at 50 µM [1] [%] | MIC [2] [µg/mL] | MIC [3] [µM] | inhibition of growth at 50 µM [4] [%] | inhibition of growth at 50 µM [5] [%] | IC50 [6] [nM] | IC50 [7] [nM] | MIC [8] [µg/mL] | IC50 [9] [nM] | inhibition of growth at 50 µM [10] [%] | MIC [11] [µM] | Kd [12] [nM] | MIC [13] [µM] | MIC [14] [µg/mL] | Activity [15] [%] | MIC [16] [µM] | Activity [17] [%] | Activity [18] [%] | IC50 [19] [nM]
1 | O=C(O)CCC(=O)Nc1nc2c(s1)C[C@@H](NC(=O)c1cc(Br)c(Br)[nH]1)CC2 | < 50 | 256 (≈ 492 µM) | > 125 | < 50 | < 50 | 270000 | 49 | > 256 | 110000 | < 50 | > 125 | 10 | > 125 | > 256 | 90 | > 125 |  |  | 
2 | O=C(O)C(=O)Nc1nc2c(s1)C[C@@H](NC(=O)c1cc(Cl)c(Cl)[nH]1)CC2 | < 50 | > 256 | > 125 | < 50 | < 50 | 300000 | 590 | > 256 | 170000 | < 50 | > 125 |  | > 125 | > 256 | 82 | > 125 |  |  | 
3 | COC(=O)CCC(=O)Nc1nc2c(s1)C[C@@H](NC(=O)c1cc(Br)c(Br)[nH]1)CC2 | < 50 | 32 (≈ 59.9 µM) | > 125 | < 50 | < 50 |  | 93 | 64 (≈ 120 µM) |  | < 50 | > 125 | 150 | > 125 | > 256 | 97 | > 125 | 113 | 99 | 
4 | CC(=O)Nc1nc2c(s1)C[C@@H](NC(=O)c1cc(Br)c(Br)[nH]1)CC2 | < 50 |  | > 125 | < 50 | < 50 | 26000 | 150 |  |  | < 50 | > 125 |  | > 125 |  | 98 | > 125 |  | 101 | 
5 | O=C(O)CC(=O)Nc1nc2c(s1)C[C@@H](NC(=O)c1cc3ccccc3[nH]1)CC2 | < 50 | > 256 | > 125 | < 50 | < 50 |  | 7600 | > 256 |  | < 50 | > 125 |  | > 125 | > 256 | 96 | > 125 | 117 | 103 | 22000
6 | O=C(O)CCC(=O)Nc1nc2c(s1)C[C@@H](NC(=O)c1cc(Cl)c(Cl)[nH]1)CC2 | < 50 | > 256 | > 125 | < 50 | < 50 | 10000 | 300 | > 256 |  | < 50 | > 125 |  | > 125 | > 256 | 72 | > 125 |  | 97 | 
7 | O=C(O)C(=O)Nc1nc2c(s1)C[C@@H](NC(=O)c1cc3ccccc3[nH]1)CC2 | < 50 | > 256 | > 125 | < 50 | < 50 |  | 7700 | 128 (≈ 333 µM) |  | < 50 | > 125 |  | > 125 | > 256 | 47 | > 125 | 79 | 99 | 
8 | CCOC(=O)C(=O)Nc1nc2c(s1)C[C@@H](NC(=O)c1cc(Br)c(Br)[nH]1)CC2 | < 50 | 128 (≈ 246 µM) | > 125 | < 50 | < 50 | 80000 | 100 | > 256 | 180000 | < 50 | > 125 |  | > 125 | > 256 | 74 | > 125 |  |  | 570
9 | NC(=O)CC(=O)Nc1nc2c(s1)C[C@@H](NC(=O)c1cc(Br)c(Br)[nH]1)CC2 | < 50 | 128 (≈ 253 µM) | > 125 | < 50 | < 50 |  | 1700 | > 256 |  | < 50 | > 125 |  | > 125 | > 256 | 97 | > 125 | 71 | 98 | 
10 | O=C(O)CC(=O)Nc1nc2c(s1)C[C@H](NC(=O)c1cc(Br)c(Br)[nH]1)CC2 | < 50 | > 256 | > 125 | < 50 | < 50 |  | 500 | > 256 |  | < 50 | > 125 |  | > 125 | > 256 | 96 | > 125 | 108 | 102 | 
11 | Nc1nc2c(s1)C[C@H](NC(=O)c1cc(Br)c(Br)[nH]1)CC2 | < 50 | 64 (≈ 152 µM) | > 125 | < 50 | < 50 |  | 41000 | 64 (≈ 152 µM) |  | < 50 | > 125 |  | > 125 | > 256 | 96 | > 125 | 118 | 92 | 
12 | COC(=O)CC(=O)Nc1nc2c(s1)C[C@@H](NC(=O)c1cc(Cl)c(Cl)[nH]1)CC2 | < 50 | 32 (≈ 74.2 µM) | > 125 | < 50 | < 50 |  | 400 | 32 (≈ 74.2 µM) |  | < 50 | > 125 | 50 | > 125 | > 256 | 97 | > 125 | 63 | 101 | 
